Source: patent US20240424115A1, “LONG-ACTING INTERLEUKIN-15 RECEPTOR AGONISTS AND RELATED IMMUNOTHERAPEUTIC COMPOSITIONS AND METHODS” (Nektar Therapeutics, priority 2017, published 2024)
pKd: −log10 of the molar value.

Assays:
IL-15Rα:Fc [1] = test: SPR (BIAcore), IL-15Rα:Fc captured by immobilised goat anti-human Fc
IL-15Rα = IL-15Rα (Homo sapiens, UniProt Q13261); test: Receptor affinity for IL-15Rα by surface plasmon resonance (BIAcore); format: binding; conditions: Table 2B; read-out: IL-15Rα KD
Sequence of IL-15Rα (Q13261 31-205 limits assumed): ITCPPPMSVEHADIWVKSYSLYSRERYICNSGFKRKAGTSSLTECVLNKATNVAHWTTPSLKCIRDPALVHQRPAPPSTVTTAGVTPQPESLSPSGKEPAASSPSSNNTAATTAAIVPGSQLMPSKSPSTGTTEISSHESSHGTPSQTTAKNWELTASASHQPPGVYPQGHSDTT
Procedure: The affinities of IL-15 and exemplary long acting rIL-15 receptor agonists were measured using Surface Plasmon Resonance (“SPR”) using a BIAcore™ SPR system. Briefly, the surface of a Biacore CM5 sensor chip was activated using a 1:1 mixture of NHS: EDC to generate active NHS esters. Goat anti-human Fc antibody was covalently attached to the surface by injecting it for five minutes in 10 mM sodium acetate (pH 4). There were approximately 8000 RU of antibodies bound to the surface. Any remaining NHS ester was then quenched with ethanolamine.
At the initiation of each injection cycle, IL-15-Rα-Fc was captured on a sensor chip channel by a five-minute injection step in PBSP. Typically, 150-200 RU of receptors were bound on the surface.
(§1) Long acting rIL-15 receptor agonist test articles were diluted to 10 µM in PBS (containing 0.05% Tween 20 and 0.1 mg/ml BSA). A series of 3-fold dilutions were made and injected onto a sensor chip which was coated with IL-15Rα. The affinities were measured by determining the ka and kd rates separately, and the ratio between kd and ka was used to calculate the Kd values.
The affinities of exemplary long-acting IL-15 receptor agonists (test articles) for the IL-15 α receptor were measured and compared to IL-15. Affinity was measured by BIAcore using IL-15Rα:Fc captured by immobilized anti-Fc.
as §1, with “The” for “Long acting rIL-15 receptor agonist”, “μM” for “µM”, “between ka and” for “between”, “kd” for “kd and ka”, “[…]” for “Kd”

CTLL-2 cells = test: Potency assay based on STAT5 phosphorylation in CTLL-2 cells; format: cell-based, murine; conditions: for EC50 (ng/mL) CTLL-2 pSTAT5: Table 2B
Procedure: In the phospho-STAT5 assay following receptor binding, downstream cell signaling can then activate Signal Transducer and Activator of Transcription 5 (STAT5) through phosphorylation to promote gene expression to induce cell proliferation. The activation of phosho-STAT5 is measured in CTLL-2 cells, a murine T lymphocyte cell line, using the phospho-STAT5/total STAT5 multiplexed assay (Meso Scale Discovery, MD) in response to sample and reference treatment for ˜10 minutes.
One day prior to the assay, CTLL-2 cells were split into fresh growth medium [RPMI 1640 supplemented with 10% FBS, 10% T-cell culture supplement (catalog #354115, Corning, Inc., Tewksbury, MA), 2 mM L-glutamate, and 1 mM sodium pyruvate]. On the day of assay, cells were pre-incubated in assay medium (RPMI 1640 supplemented with 1% FBS, 2 mM L-glutamate, and 1 mM sodium pyruvate) for at least four hours, and then plated in assay medium in a 96-well plate at 50,000 cells/well. Dilutions of the test article were prepared in an appropriate buffer immediately prior to assay. Stimulation of CTLL-2 cells was initiated by the transfer of 25X test article solutions to triplicate wells containing CTLL-2 cells. Plates were incubated at 37° C., 5% CO2 for 10 minutes, and the reaction was stopped by cell lysis. Detection of phospho-STAT5 and total STAT5 protein levels in cell lysates was performed using the MSD Phospho (Tyr694)/Total STATa,b Whole Cell Lysate Kit (Meso Scale Discovery, MD).

[2] = PK (MRT) of long-acting IL-15 receptor agonists (Table 2B); format: in vivo; conditions: species not stated
human PBMCs = test: HuPBMC-pStat5 assay (flow cytometry, lymphocyte subpopulations); format: cell-based; conditions: for EC50 (ng/ml) pSTAT5 CD56bright NK: Table 3, CD56bright NK cells
Procedure: The potency of IL-15 or long acting IL-15 R agonists on various human lymphocyte subpopulations was determined by phospho-STAT5 (Y694) dose response assay. Frozen human PBMCs from multiple donors were supplied by AllCells. 1×10^6 cells/100ul were cultured in complete RPMI media for 2 hours and then incubated with the indicated concentrations (10,000ng/ml-0.001ng/ml serial dilutions) of IL-15 or conjugates for 20minutes at 37c. The cells were then fixed (using BD Cytofix) and permeabilized (using 100% pre-chilled methanol) and stained with antibodies for CD3, CD4, CD8, CD4-Tregs (CD4+CD25+Foxp3+), CD56 and phosphorylated STAT5 (Y694) before analysis by flow cytometry. Concentration-response relationships were used to calculate the EC50 values.
Assessment of in-vitro activity of exemplary long-acting IL-15 receptor agonists (e.g., Conjugates 1, 3 and 5) was carried out by investigating signaling in NK cell subsets of human PBMCs as shown in FIGS. 10A (CD56bright cells) and 10B (CD56dim cells). STAT5 phosphorylation was evaluated as previously described for assessing IL-15 signaling activity of the long acting IL-15 receptor agonists.
A second study was conducted to investigate/compare the pStat5 response of human PBMCs obtained from two donors (CD3, CD4, CD8, CD56 (bright and dim) and CD4-Tregs (CD25+Foxp3+)) to IL-15, Conjugate 1 and Conjugate 5. An […] dose response was examined using a 10-fold dilution with a dose range of 0.001-10000 ng/ml and a 20 min stimulation. Each of the test articles was diluted in IL-15 buffer+0.1% BSA.
Assessment of in vitro activity of Conjugate 1 was carried out by investigating NK and CD8 JAK/STAT signaling after treatment of human PBMCs with IL-15 or Conjugate 1 at a dose range of 0.001-10000 ng/ml. STAT5 phosphorylation was assessed as previously described.

IL-15Rα:Fc [3] = test: SPR (BIAcore), IL-15Rα:Fc captured by immobilised goat anti-human Fc, KD from kd/ka
IL-15Rα:Fc [4] = test: SPR (BIAcore), IL-15Rα:Fc captured by immobilised goat anti-human Fc, test article injected in 3-fold dilutions from 10 µM

Sequence of IL-15Rα:Fc (Q13261 31-205): as the sequence (Q13261 31-205 limits assumed) above

mono-mPEG-ButryALD-40k-IL-15 (Conjugate 5) (from UniProt P40933 49-162) (ligand)
pKd (IL-15Rα:Fc [1]): 9.84

[Mono-PEG2-RU-ButryALD-40K]-IL-15 [Conjugate 3]
pKd (IL-15Rα): 9.39 | EC50 (ng/mL) CTLL-2 pSTAT5 (CTLL-2 cells): 16.80 ng/mL | PK (MRT) [2]: 30 h | EC50 (ng/ml) pSTAT5 CD56bright NK (human PBMCs): 69.76 ng/ml

mono-mPEG-ButryALD-40k-IL-15 [Conjugate 5]
pKd (IL-15Rα): 9.84 | EC50 (ng/mL) CTLL-2 pSTAT5 (CTLL-2 cells): 1.45 ng/mL | PK (MRT) [2]: 25 h | EC50 (ng/ml)-% pSTAT5 CD3 donor1 (human PBMCs; CD3 cells, donor1, 20 min stimulation): 1.3 ng/ml | EC50 (ng/ml)-% pSTAT5 CD3 donor2 (human PBMCs; CD3 cells, donor2, 20 min stimulation): 1.7 ng/ml | EC50 (ng/ml)-% pSTAT5 Treg donor1 (human PBMCs; CD4-Treg cells, donor1): 0.44 ng/ml | EC50 (ng/ml)-% pSTAT5 Treg donor2 (human PBMCs; CD4-Treg cells, donor2): 0.45 ng/ml | EC50 (ng/ml)-% pSTAT5 CD4 donor1 (human PBMCs; CD4 cells, donor1): 1.3 ng/ml | EC50 (ng/ml)-% pSTAT5 CD4 donor2 (human PBMCs; CD4 cells, donor2): 1.14 ng/ml | EC50 (ng/ml)-% pSTAT5 CD8 donor1 (human PBMCs; CD8 cells, donor1): 1.4 ng/ml | EC50 (ng/ml)-% pSTAT5 CD8 donor2 (human PBMCs; CD8 cells, donor2): 2.5 ng/ml | EC50 (ng/ml)-% pSTAT5 CD56bright donor1 (human PBMCs; CD56bright cells, donor1): 5.1 ng/ml | EC50 (ng/ml)-% pSTAT5 CD56bright donor2 (human PBMCs; CD56bright cells, donor2): 4.5 ng/ml | EC50 (ng/ml)-% pSTAT5 CD56dim donor1 (human PBMCs; CD56dim cells, donor1): 16.48 ng/ml | EC50 (ng/ml)-% pSTAT5 CD56dim donor2 (human PBMCs; CD56dim cells, donor2): 27.12 ng/ml | EC50 (ng/ml) pSTAT5 CD56bright NK (human PBMCs): 32.26 ng/ml | EC50 (ng/ml)-% pSTAT5 CD3 (human PBMCs; Table 7 Summary Table, CD3): 1.3 ng/ml | EC50 (ng/ml)-% pSTAT5 CD4 (human PBMCs; Table 7 Summary Table, CD4): 1.3 ng/ml | EC50 (ng/ml)-% pSTAT5 CD8 (human PBMCs; Table 7 Summary Table, CD8): 1.4 ng/ml | EC50 (ng/ml)-% pSTAT5 CD56bright (human PBMCs; Table 7 Summary Table, CD56bright): 5.1 ng/ml | EC50 (ng/ml)-% pSTAT5 CD56dim (human PBMCs; Table 7 Summary Table, CD56dim): 16.48 ng/ml | EC50 (ng/ml)-% pSTAT5 Treg (human PBMCs; Table 7 Summary Table, Treg): 0.44 ng/ml | IL-15 more potent than conjugate in inducing CD3, CD4, CD8 and Treg cells (human PBMCs; Table 7 data): 5-8 fold | IL-15 more potent than conjugate in inducing CD56bright and CD56dim cells (human PBMCs; Table 7 data): 40-60 fold | EC50 (ng/ml)-MFI CD3 donor1 (human PBMCs; pSTAT5 MFI, CD3 cells, donor1): 84.73 ng/mL | EC50 (ng/ml)-MFI CD3 donor2 (human PBMCs; pSTAT5 MFI, CD3 cells, donor2): 154.2 ng/mL | EC50 (ng/ml)-MFI Treg donor1 (human PBMCs; pSTAT5 MFI, CD4-Treg cells, donor1): 3.5 ng/mL | EC50 (ng/ml)-MFI Treg donor2 (human PBMCs; pSTAT5 MFI, CD4-Treg cells, donor2): 5.4 ng/mL | EC50 (ng/ml)-MFI CD4 donor1 (human PBMCs; pSTAT5 MFI, CD4 cells, donor1): 84.21 ng/mL | EC50 (ng/ml)-MFI CD4 donor2 (human PBMCs; pSTAT5 MFI, CD4 cells, donor2): 98.18 ng/mL | EC50 (ng/ml)-MFI CD8 donor1 (human PBMCs; pSTAT5 MFI, CD8 cells, donor1): 53.7 ng/mL | EC50 (ng/ml)-MFI CD8 donor2 (human PBMCs; pSTAT5 MFI, CD8 cells, donor2): 204.6 ng/mL | EC50 (ng/ml)-MFI CD56bright donor1 (human PBMCs; pSTAT5 MFI, CD56bright cells, donor1): 24.86 ng/mL | EC50 (ng/ml)-MFI CD56bright donor2 (human PBMCs; pSTAT5 MFI, CD56bright cells, donor2): 56.9 ng/mL | EC50 (ng/ml)-MFI CD56dim donor1 (human PBMCs; pSTAT5 MFI, CD56dim cells, donor1): 97.51 ng/mL | EC50 (ng/ml)-MFI CD56dim donor2 (human PBMCs; pSTAT5 MFI, CD56dim cells, donor2): 283.4 ng/mL

Recombinant human IL-15 (rIL-15), SEQ ID NO: 1 (from UniProt P40933 49-162) (ligand)
pKd (IL-15Rα:Fc [3]): 9.59 | pKd (IL-15Rα:Fc [1]): 9.59 | koff (IL-15Rα:Fc [4]): 0.000149 s⁻¹ | kon (IL-15Rα:Fc [4]): 578000 M⁻¹ s⁻¹

recombinant human IL-15: recombinant human IL-15 obtained from PeproTech, served as the control in the CTLL-2 assay [reference compound]
average EC50, STAT5 phosphorylation in CTLL-2 cells (CTLL-2 cells; 10-minute treatment, control): 0.00027 µg/mL

mono-PEG2-RU-ButryALD-20K]-IL-15 [Conjugate 4]
pKd (IL-15Rα): 9.67 | EC50 (ng/mL) CTLL-2 pSTAT5 (CTLL-2 cells): 6.21 ng/mL

mono-PEG2-RU-ButryALD-20K]-IL-15 (Conjugate 4) (from UniProt P40933 49-162) (ligand)
pKd (IL-15Rα:Fc [1]): 9.67

[Mono-PEG2-RU-ButryALD-40K]-IL-15 (Conjugate 3) (from UniProt P40933 49-162) (ligand)
pKd (IL-15Rα:Fc [1]): 9.39
